For 2 compounds, EC50 results are on record in patent US20220025058A1, “METHODS AND PHARMACEUTICAL COMPOSITIONS FOR THE TREATMENT OF ACUTE MYELOID LEUKEMIA BY ERADICATING LEUKEMIC STEM CELLS” (INSERM (INSTITUT NATIONAL DE LA SANTÉ ET DE LA RECHERCHE …, priority 2018, published 2022).

The test system of the test is MOLM-14 cells. Briefly: EC50 experiments (MTS cell viability) on MOLM-14 cells sorted from xenografted mice. Format: cell-based. Conditions: Homo sapiens, MOLM-14, 168 h, after one week of in vitro culture. On the procedure: The day before experiment, cells were adjusted to 3×10^5 cells/ml final concentration and plated in a 96-well plate (final volume: 100 μl). To measure half-maximal inhibitory concentration (EC50), increased concentrations of AraC or idarubicin were added to the medium. After two days, 20 μl per well of MTS solution (Promega) was added for two hours and then absorbance was recorded at 490 nm with a 96-well plate reader. The doses that decrease cell viability to 50% (EC50) were analyzed Nonlinear regression log [inhibitor] vs. normalized response-variable slope with GraphPad Prism software.
After 10 days, shRNA expression was activated and the mice were treated with 30 mg/kg/day cytarabine for 5 days (FIG. 2A). […] Also MOLM-14 expressing shCTR and treated by vehicle or AraC were sorted by flow cytometry, and plated in vitro for further experiments. […] To evaluate the role of CALCRL in this chemoresistance acquired in vivo, we undertook to deplete CALCRL in these cells.

Setting [1] is: MOLM-14 shCTR cells from AraC treated group mice.
Where [2] appears, read: MOLM-14 shCTR cells from vehicle group mice.

Structures are written as SMILES.

As usually defined, the EC50 is the concentration needed to bring the measured effect to its halfway point. On to `Nc1ccn([C@@H]2O[C@H](CO)[C@@H](O)[C@@H]2O)c(=O)n1` [AraC, cytarabine], for which the EC50 by setting is: under setting [1], 6710 nM; under setting [2], 2240 nM.

Take `CC(=O)[C@]1(O)Cc2c(O)c3c(c(O)c2[C@@H](O[C@H]2C[C@H](N)[C@H](O)[C@H](C)O2)C1)C(=O)c1ccccc1C3=O` [idarubicin]: the half-maximal effective concentration (EC50) was determined as 60.5 nM under setting [1] and 28.6 nM under setting [2].
